# Measured values taken from patent publication US10167272B2, “Muscarinic agonists” (Heptares Therapeutics Limited, priority 2015, dated 2019).
# Read-outs that look alike come from different tables or passages of the source.
# Tests used:
# [1] = target: T1, human muscarinic M1 receptor (Homo sapiens, UniProt P11229); experiment: Alphascreen Surefire phospho-ERK1/2 functional assay, M1; format: cell-based; settings: for EC50: read-out: pEC50 M1 (converted); for Emax: CHO
# T1 sequence (P11229 1-460): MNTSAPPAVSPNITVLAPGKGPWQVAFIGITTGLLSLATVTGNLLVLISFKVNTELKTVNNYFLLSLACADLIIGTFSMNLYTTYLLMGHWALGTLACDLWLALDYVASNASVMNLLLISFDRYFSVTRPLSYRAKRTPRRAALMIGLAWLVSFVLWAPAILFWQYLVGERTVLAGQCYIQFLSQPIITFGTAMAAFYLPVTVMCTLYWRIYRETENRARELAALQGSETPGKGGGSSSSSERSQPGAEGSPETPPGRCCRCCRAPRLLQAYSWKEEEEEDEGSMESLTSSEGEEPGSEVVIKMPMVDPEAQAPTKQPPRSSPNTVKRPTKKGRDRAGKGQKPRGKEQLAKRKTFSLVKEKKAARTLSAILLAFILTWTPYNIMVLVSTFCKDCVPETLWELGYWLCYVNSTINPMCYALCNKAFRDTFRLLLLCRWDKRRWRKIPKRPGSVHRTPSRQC
# Method: ERK1/2 phosphorylation is a downstream consequence of both Gq/11 and Gi/o protein coupled receptor activation, making it highly suitable for the assessment of M1, M3 (Gq/11 coupled) and M2, M4 receptors (Gi/o coupled), rather than using different assay formats for different receptor subtypes. CHO cells stably expressing the human muscarinic M1, M2, M3 or M4 receptor were plated (25K/well) onto 96-well tissue culture plates in MEM-alpha+10% dialysed FBS. Once adhered, cells were serum-starved overnight. Agonist stimulation was performed by the addition of 5 μL agonist to the cells for 5 min (37° C.). Media was removed and 50 μL of lysis buffer added. After 15 min, a 4 μL sample was transferred to 384-well plate and 7 μL of detection mixture added.
# [2] = target: T2, human muscarinic M4 receptor (Homo sapiens, UniProt P08173); experiment: Alphascreen Surefire phospho-ERK1/2 functional assay, M4; format: cell-based; settings: for EC50: read-out: pEC50 M4 (converted); for Emax: CHO
# T2 construct: expressed in transfected cells
# T2 sequence (P08173 1-479): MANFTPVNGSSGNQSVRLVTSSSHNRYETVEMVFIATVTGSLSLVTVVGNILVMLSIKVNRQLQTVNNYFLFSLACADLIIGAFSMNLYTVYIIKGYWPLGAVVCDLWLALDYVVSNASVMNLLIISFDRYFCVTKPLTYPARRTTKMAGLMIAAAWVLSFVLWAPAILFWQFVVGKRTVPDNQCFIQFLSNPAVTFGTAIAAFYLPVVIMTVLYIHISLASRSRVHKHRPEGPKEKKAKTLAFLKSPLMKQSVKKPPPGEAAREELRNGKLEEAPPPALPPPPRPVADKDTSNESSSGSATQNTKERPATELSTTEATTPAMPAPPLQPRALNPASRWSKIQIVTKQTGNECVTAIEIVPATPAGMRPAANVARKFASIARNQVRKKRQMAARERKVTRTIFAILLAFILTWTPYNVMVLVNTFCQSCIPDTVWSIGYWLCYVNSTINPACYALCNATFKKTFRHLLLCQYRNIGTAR
# [3] = CHO cells stably expressing human M1, phospho-ERK1/2
# [4] = read-out: % Emax cf. ACh (M1), CHO cells stably expressing human M1, phospho-ERK1/2, relative to ACh
# [5] = CHO cells stably expressing human M4, phospho-ERK1/2
# [6] = CHO cells stably expressing human M4, phospho-ERK1/2, relative to ACh
# [7] = CHO cells stably expressing human M1, phospho-ERK1/2, relative to ACh
# [8] = read-out: % Emax cf. ACh (M4), CHO cells stably expressing human M4, phospho-ERK1/2, relative to ACh
Compound,"EC50 [1, 3] [nM]","Emax [1, 4] [%]","EC50 [2, 5] [nM]","% Emax cf. ACh (M4) [2, 6] [%]","pEC50 M1 [1, 3]","% Emax cf. ACh (M1) [1, 7] [%]","pEC50 M4 [2, 5]","Emax [2, 8] [%]",Emax ([1]; read-out: % Emax cf. ACh (M1)) [%],Emax ([2]; read-out: % Emax cf. ACh (M4)) [%]
"CCOC(=O)N1CCC2(CC(N3CCC(N(C(C)=O)C4CC4)CC3)C2)C1 (single isomer, unassigned) [2-3 Isomer 1]",2000,78,> 20000,13,–,–,–,–,–,–
"CCOC(=O)N1CCC2(CC(N3CCC(CN(C(C)=O)C4CC4)CC3)C2)C1 (single isomer, unassigned) [2-12 Isomer 2]",–,–,–,41,< 4.7,6,6.7,–,–,–
"CCN(C(C)=O)C1CCN(C2CC3(CCN(C(=O)OC)C3)C2)CC1 (single isomer, unassigned) [2-17 Isomer 1]",> 20000,–,1260,–,–,27,–,87,–,–
"CCN(C(C)=O)C1CCN(C2CC3(CCN(C(=O)OC)C3)C2)CC1 (single isomer, unassigned) [2-17 Isomer 2]",1260,–,200,92,–,80,–,–,–,–
"CCOC(=O)N1CCC2(CC(N3CCC(N(CC(C)C)C(C)=O)CC3)C2)C1 (single isomer, unassigned) [2-19 Isomer 1]",1260,–,251,62,–,32,–,–,–,–
"CCOC(=O)N1CCC2(CC(N3CCC(N(CC4CC4)C(C)=O)CC3)C2)C1 (single isomer, unassigned) [2-20 Isomer 1]",> 20000,–,1000,36,–,17,–,–,–,–
"CCOC(=O)N1CCC2(CC(N3CCC(N(CC4(C)CCC4)C(C)=O)CC3)C2)C1 (single isomer, unassigned) [2-21 Isomer 1]",15800,–,316,–,–,51,–,–,–,–
"CCOC(=O)N1CCC2(CC(N3CCC(N(C(C)=O)C4(C)CCC4)CC3)C2)C1 (single isomer, unassigned) [2-22 Isomer 2]",316,132,79.4,–,–,–,–,139,–,–
"CCOC(=O)N1CCC2(CC(N3CCC(N(CC4(C)COC4)C(C)=O)CC3)C2)C1 (single isomer, unassigned) [2-23 Isomer 2]",1260,43,631,–,–,–,–,65,–,–
"CCOC(=O)N1CCC2(CC(N3CCC(N(CC(F)(F)F)C(C)=O)CC3)C2)C1 (single isomer, unassigned) [2-25 Isomer 2]",3980,125,100,–,–,–,–,101,–,–
"CCOC(=O)N1CCC2(CC(N3CCC(N(CC(C)(C)F)C(C)=O)CC3)C2)C1 (single isomer, unassigned) [2-26 Isomer 2]",398,–,63.1,114,–,109,–,–,–,–
"CCOC(=O)N1CCC2(CC(N3CCC(N(CC(C)(C)OC)C(C)=O)CC3)C2)C1 (single isomer, unassigned) [2-29 Isomer 1]",> 20000,–,1260,56,–,17,–,–,–,–
"CCOC(=O)N1CCC2(CC(N3CCC(N(CC4(OC)CCC4)C(C)=O)CC3)C2)C1 (single isomer, unassigned) [2-30 Isomer 1]",1260,–,126,59,–,33,–,–,–,–
"CCOC(=O)N1CCC2(CC(N3CCC(N(CC4(O)CCC4)C(C)=O)CC3)C2)C1 (single isomer, unassigned) [2-31 Isomer 1]",3980,–,200,62,–,27,–,–,–,–
"CCOC(=O)N1CCC2(CC(N3CCC(N(Cc4cnco4)C(C)=O)CC3)C2)C1 (single isomer, unassigned) [2-36 Isomer 2]",2510,45,631,–,–,–,–,71,–,–
"CCOC(=O)N1CCC2(CC(N3CCC(N(Cc4ncco4)C(C)=O)CC3)C2)C1 (single isomer, unassigned) [2-37 Isomer 2]",1260,26,631,–,–,–,–,55,–,–
"CCOC(=O)N1CCC2(CC(N3CCC(N(CC(F)(F)F)C(=O)OCCOC)CC3)C2)C1 (single isomer, unassigned) [2-43 Isomer 2]",2510,35,126,–,–,–,–,91,–,–
"CCOC(=O)N1CCC2(CC(N3CCC(N(CC)C4COC4)CC3)C2)C1 (single isomer, unassigned) [2-53 Isomer 2]",> 20000,42,251,–,–,–,–,62,–,–
"CCOC(=O)N1CCC2(CC(N3CCC(N(CCO)c4ccccc4)CC3)C2)C1 (single isomer, unassigned) [2-58 Isomer 2]",1260,–,251,–,–,–,–,–,63,74
"CCOC(=O)N1CCC2(CC(N3CCC(N(CC)C(=O)N(C)C)CC3)C2)C1 (single isomer, unassigned) [Example 2-44 Isomer 2]",2510,55,398,–,–,–,–,80,–,–

# The next lines start with results.
"EC50 [1, 3] [nM]","Emax [1, 4] [%]","EC50 [2, 5] [nM]","% Emax cf. ACh (M4) [2, 6] [%]","pEC50 M1 [1, 3]","% Emax cf. ACh (M1) [1, 7] [%]","pEC50 M4 [2, 5]","Emax [2, 8] [%]",Compound,Emax ([1]; read-out: % Emax cf. ACh (M1)) [%],Emax ([2]; read-out: % Emax cf. ACh (M4)) [%]
501,117,200,–,–,–,–,95,"COC(=O)N1CCC2(CC(N3CCC(N(C(C)=O)C4CCC4)CC3)C2)C1 (single isomer, unassigned) [2-15 Isomer 2]",–,–
2000,89,200,–,–,–,–,107,"CCCN(C(C)=O)C1CCN(C2CC3(CCN(C(=O)OCC)C3)C2)CC1 (single isomer, unassigned) [2-18 Isomer 2]",–,–
> 20000,–,1000,52,–,23,–,–,"CCOC(=O)N1CCC2(CC(N3CCC(N(CC(C)(C)F)C(C)=O)CC3)C2)C1 (single isomer, unassigned) [2-26 Isomer 1]",–,–
631,108,79.4,–,–,–,–,105,"CCOC(=O)N1CCC2(CC(N3CCC(N(CC(C)(F)F)C(C)=O)CC3)C2)C1 (single isomer, unassigned) [2-27 Isomer 2]",–,–
158,124,251,–,–,–,–,80,"CCOC(=O)N1CCC2(CC(N3CCC(N(C(C)=O)C4CC(F)(F)C4)CC3)C2)C1 (single isomer, unassigned) [2-28 Isomer 2]",–,–
398,–,39.8,95,–,78,–,–,"CCOC(=O)N1CCC2(CC(N3CCC(N(CC4(O)CCC4)C(C)=O)CC3)C2)C1 (single isomer, unassigned) [2-31 Isomer 2]",–,–
> 20000,8,1260,–,–,–,–,78,"CCOC(=O)N1CCC2(CC(N3CCC(N(CCO)C4CC4)CC3)C2)C1 (single isomer, unassigned) [2-49 Isomer 2]",–,–
> 20000,17,251,–,–,–,–,70,"CCOC(=O)N1CCC2(CC(N3CCC(N(CCO)C4CCC4)CC3)C2)C1 (single isomer, unassigned) [2-50 Isomer 2]",–,–
> 20000,7,1260,–,–,–,–,41,"CCOC(=O)N1CCC2(CC(N3CCC(N(CC)CCS(C)(=O)=O)CC3)C2)C1 (single isomer, unassigned) [2-56 Isomer 2]",–,–
7940,45,> 20000,14,–,–,–,–,"CCOC(=O)N1CCC2(CC(N3CCC(C(C)n4cccn4)CC3)C2)C1 (single isomer, unassigned) [2-65 Isomer 1a]",–,–
